Assay results as given in patent US20260035387A1 (BIOGEN MA INC., priority 2022, published 2026).

Tested on: mutant Huntington (HTT) protein
Assay: HTT Mutant HTRF iPSC assay (mHTT protein lowering)
Assay type: cell-based
Conditions: human iPSC derived from a HTT patient with a poly-Q49 mutation

Q: For `COc1cn2nc(C)cc2cc1NC(=O)c1cc2ccc(N3CCC(N(C)C)C3)nc2s1` (single isomer, unassigned) [Compound 205], which IC50 is on record?
A: < 100 nM

Q: Which IC50 does the source give for `COc1cn2nc(C)cc2cc1NC(=O)c1cc2ccc(N3CCC(N(C)C)C3)nc2s1` (single isomer, unassigned) [Compound 206] here?
A: < 100 nM

Q: Which IC50 does the source give for `Cc1cn2cc(NC(=O)c3cc4ccc(N5CCC(NCC6CC6)C5)nc4s3)cc(F)c2n1` (single isomer, unassigned) [Compound 210] here?
A: < 100 nM

Q: Which IC50 does the source give for `CCNC1CCN(c2ccc3cc(C(=O)Nc4cc5cc(C)nn5cc4OC)sc3n2)C1` (single isomer, unassigned) [Compound 212] here?
A: < 100 nM

Q: How did the IC50 turn out when `CCNC1CCN(c2ccc3cc(C(=O)Nc4cc5cc(C)nn5cc4OC)sc3n2)C1` (single isomer, unassigned) [Compound 213] was run?
A: < 100 nM

Q: With `COc1cc2nn(C)cc2cc1NC(=O)c1cc2ccc(N3CC[C@]4(CCCN4C)C3)nc2s1` (single isomer, unassigned) [Compound 222] as the compound, how does the IC50 read?
A: < 100 nM

Q: How did the IC50 turn out when `COc1cc2nn(C)cc2cc1NC(=O)c1cc2ccc(N3CC[C@@]4(CCCN4C)C3)nc2s1` (single isomer, unassigned) [Compound 223] was run?
A: < 100 nM

Q: For `COc1cn2nc(C)cc2cc1NC(=O)c1cc2ccc(N3CCC4(CCCN4C)C3)nc2s1` (single isomer, unassigned) [Compound 224], which IC50 is on record?
A: < 100 nM

Q: For `COc1cn2nc(C)cc2cc1NC(=O)c1cc2ccc(N3CCC4(CCCN4C)C3)nc2s1` (single isomer, unassigned) [Compound 225], which IC50 is on record?
A: < 100 nM

Q: `COc1c(NC(=O)c2cc3ccc(N4CCC5(CCCN5C)C4)nc3s2)cn2cc(C)nc2c1F` (single isomer, unassigned) [Compound 239] was tested. Which IC50 did it give?
A: < 100 nM

Q: `COc1cc2nn(C)cc2cc1NC(=O)c1cc2ccc(N3CC[C@@H](N(C)C)C3)nc2s1` (single isomer, unassigned) [Compound 241] was tested. Which IC50 did it give?
A: < 100 nM

Q: `COc1c(NC(=O)c2cc3ccc(N4CCC5(CCCN5C)C4)nc3s2)cn2cc(C)nc2c1F` (single isomer, unassigned) [Compound 242] was tested. Which IC50 did it give?
A: < 100 nM

Q: `COc1cc2nn(C)cc2cc1NC(=O)c1cc2ccc(N3CCC(N(C)C)C3)nc2s1` (single isomer, unassigned) [Compound 244] was tested. Which IC50 did it give?
A: < 100 nM

Q: With `COc1cc2nc(C)cn2cc1NC(=O)c1cc2ccc(N3CC[C@]4(CCCN4C)C3)nc2s1` (single isomer, unassigned) [Compound 251] as the compound, how does the IC50 read?
A: 100 to 1000 nM

Q: With `COc1cc2nc(C)cn2cc1NC(=O)c1cc2ccc(N3CC[C@@]4(CCCN4C)C3)nc2s1` (single isomer, unassigned) [Compound 252] as the compound, how does the IC50 read?
A: < 100 nM

Q: For `Cc1cn2cc(NC(=O)c3cc4ccc(N5CC[C@@]6(CCCN6C)C5)nc4s3)nc(C(F)F)c2n1` (single isomer, unassigned) [Compound 254], which IC50 is on record?
A: < 100 nM

Q: `Cc1cn2cc(NC(=O)c3cc4ccc(N5CC[C@]6(CCCN6C)C5)nc4s3)nc(C(F)F)c2n1` (single isomer, unassigned) [Compound 255] was tested. Which IC50 did it give?
A: < 100 nM

Q: Which IC50 does the source give for `COc1cc2nn(C)cc2cc1NC(=O)c1cc2ncc(N3CCC4(CCN4C)C3)nc2s1` (single isomer, unassigned) [Compound 264] here?
A: < 100 nM

Q: With `COc1c(NC(=O)c2cc3ccc(C4CCN(C)C4)nc3s2)cc2cn(C)nc2c1F` (single isomer, unassigned) [Compound 265] as the compound, how does the IC50 read?
A: < 100 nM

Q: Which IC50 does the source give for `COc1c(NC(=O)c2cc3ccc(C4CCN(C)C4)nc3s2)cc2cn(C)nc2c1F` (single isomer, unassigned) [Compound 266] here?
A: < 100 nM

Q: Which IC50 does the source give for `Cc1cn2cc(NC(=O)c3cc4ccc(N5CCC(N(C)C)C5)nc4s3)ccc2n1` (stereo in doubt) [Compound 25, (R)-6-(3-(dimethylamino)pyrrolidin-1-yl)-N-(2-methylimidazo[1,2-a]pyridin-6-yl)thieno[2,3-b]pyridine-2-carboxamide] here?
A: 100 to 1000 nM

Q: With `Cc1cn2cc(NC(=O)c3cc4ccc(N5CCC(N(C)C)C5)nc4s3)ccc2n1` (stereo in doubt) [Compound 26, (S)-6-(3-(dimethylamino)pyrrolidin-1-yl)-N-(2-methylimidazo[1,2-a]pyridin-6-yl)thieno[2,3-b]pyridine-2-carboxamide] as the compound, how does the IC50 read?
A: 100 to 1000 nM
